The results in this text go back to ChEMBL document CHEMBL5441442, “ASAP - In vitro cardiotoxicity” (2024).

Type in all cases: toxicity, cell-based, Cricetulus griseus, CHO
In data set [1] the target is Sodium channel protein type 5 subunit alpha (Homo sapiens, UniProt Q14524). As to the kind of experiment: (§1) Compounds were solubilised to 10 mM in DMSO and diluted in HBPS to 30 mM. 6-Point concentration-response curves were generated using serial dilutions from the top test concentration. Electrophysiological recordings were made from a Chinese Hamster Ovary cell line stably expressing the full-length ion channel. Single cell ionic currents were measured in whole-cell configuration at room temperature. The internal solution for hNaV1.5 is buffered to pH 7.3, and the external solution is buffered to pH 7.4. The test pulse was applied according to voltage protocol. Compounds were incubated for 2 min to allow stabilization of the parameters. Concentration-response curves were generated by cumulative addition of compound with concentrations low to high. In all cases, steady-state inhibition was achieved before the next concentration of compound was added. To investigate any use-dependence, an 8-pulse voltage protocol is applied at a frequency of 3 Hz. Inhibition is compared at pulse 1 and pulse 8. Any difference in the potency of a compound at P8 versus P1 would be typical of use-dependent block. IC50 values or % inhibition at the top test concentration is obtained. The assay has been performed by Concept Life Sciences Ltd. The settings on record: for Inhibition: chinese hamster, cho, pH 7.3, 2 min, 2 min, top test concentration 30 uM.
Sequence of Sodium channel protein type 5 subunit alpha (Q14524 whole entry): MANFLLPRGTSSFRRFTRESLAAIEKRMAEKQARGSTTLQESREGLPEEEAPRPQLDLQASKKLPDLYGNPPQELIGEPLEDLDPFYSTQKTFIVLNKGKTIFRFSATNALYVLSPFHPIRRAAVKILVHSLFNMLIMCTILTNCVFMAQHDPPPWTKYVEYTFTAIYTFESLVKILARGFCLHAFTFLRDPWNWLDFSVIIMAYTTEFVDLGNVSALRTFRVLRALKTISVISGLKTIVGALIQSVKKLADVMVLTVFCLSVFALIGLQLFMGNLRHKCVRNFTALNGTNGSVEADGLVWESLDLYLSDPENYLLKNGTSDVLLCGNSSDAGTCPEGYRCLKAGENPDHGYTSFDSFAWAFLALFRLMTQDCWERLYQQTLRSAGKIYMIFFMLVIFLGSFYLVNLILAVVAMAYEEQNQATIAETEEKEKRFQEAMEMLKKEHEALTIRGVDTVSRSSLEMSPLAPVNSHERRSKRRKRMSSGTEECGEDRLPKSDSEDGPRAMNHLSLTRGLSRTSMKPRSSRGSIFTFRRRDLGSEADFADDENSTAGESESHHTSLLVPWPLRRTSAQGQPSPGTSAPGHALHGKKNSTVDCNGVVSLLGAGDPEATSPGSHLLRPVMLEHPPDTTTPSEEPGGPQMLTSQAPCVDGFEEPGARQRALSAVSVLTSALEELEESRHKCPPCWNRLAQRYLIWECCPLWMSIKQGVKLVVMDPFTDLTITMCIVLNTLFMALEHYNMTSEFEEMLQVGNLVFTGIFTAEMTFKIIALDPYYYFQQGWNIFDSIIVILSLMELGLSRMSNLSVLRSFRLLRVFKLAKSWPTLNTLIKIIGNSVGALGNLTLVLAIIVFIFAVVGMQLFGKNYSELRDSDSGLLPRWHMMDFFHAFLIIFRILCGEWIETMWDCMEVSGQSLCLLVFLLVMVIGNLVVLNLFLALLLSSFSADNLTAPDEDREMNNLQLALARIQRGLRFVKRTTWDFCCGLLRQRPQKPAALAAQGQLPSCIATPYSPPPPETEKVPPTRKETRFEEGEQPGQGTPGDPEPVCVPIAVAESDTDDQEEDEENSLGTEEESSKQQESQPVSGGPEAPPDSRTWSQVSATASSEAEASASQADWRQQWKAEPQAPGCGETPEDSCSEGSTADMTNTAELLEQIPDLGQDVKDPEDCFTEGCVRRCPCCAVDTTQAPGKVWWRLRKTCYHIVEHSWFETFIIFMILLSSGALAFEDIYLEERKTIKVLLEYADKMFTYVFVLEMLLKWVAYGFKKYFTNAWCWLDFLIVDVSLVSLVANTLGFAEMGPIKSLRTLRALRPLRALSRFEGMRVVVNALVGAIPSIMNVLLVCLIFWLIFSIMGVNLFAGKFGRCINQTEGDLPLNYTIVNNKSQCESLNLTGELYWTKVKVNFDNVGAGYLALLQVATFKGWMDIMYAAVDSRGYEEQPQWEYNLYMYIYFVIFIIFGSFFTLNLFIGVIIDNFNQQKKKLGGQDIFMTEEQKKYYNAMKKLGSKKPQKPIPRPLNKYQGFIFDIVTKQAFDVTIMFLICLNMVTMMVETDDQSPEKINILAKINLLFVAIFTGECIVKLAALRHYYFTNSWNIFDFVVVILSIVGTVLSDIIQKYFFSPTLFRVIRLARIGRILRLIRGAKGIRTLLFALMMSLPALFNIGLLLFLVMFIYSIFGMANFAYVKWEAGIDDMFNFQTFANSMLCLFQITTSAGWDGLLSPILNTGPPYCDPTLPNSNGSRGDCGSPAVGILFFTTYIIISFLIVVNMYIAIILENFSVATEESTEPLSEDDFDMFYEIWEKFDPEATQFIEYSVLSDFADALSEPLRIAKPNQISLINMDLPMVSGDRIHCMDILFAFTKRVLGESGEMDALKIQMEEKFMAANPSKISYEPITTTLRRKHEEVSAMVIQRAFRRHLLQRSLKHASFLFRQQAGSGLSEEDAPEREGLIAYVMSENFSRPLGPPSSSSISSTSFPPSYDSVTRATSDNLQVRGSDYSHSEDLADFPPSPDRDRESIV

For data set [2], the target named is NaV1.5 (sodium channel protein type 5 subunit alpha) (Homo sapiens, UniProt Q14524). The data set is described as §1. The conditions noted are these: chinese hamster, CHO cells stably expressing full-length hNaV1.5, pH 7.3; top test concentration 30 uM.
Sequence of NaV1.5 (sodium channel protein type 5 subunit alpha) (Q14524 whole entry): as above
Data set [3] deals with Voltage-gated inwardly rectifying potassium channel KCNH2 (Homo sapiens, UniProt Q12809). Described as §1, with “recordings are” for “recordings were”, “currents are” for “currents were”, “for hERG” for “for hNaV1.5”, “added.” for “added. To investigate any use-dependence, an 8-pulse voltage protocol is applied at a frequency of 3 Hz. Inhibition is compared at pulse 1 and pulse 8. Any difference in the potency of a compound at P8 versus P1 would be typical of use-dependent block.”, “% of” for “%”, “at” for “at the”.

The target in another data set is hERG (KCNH2) (Homo sapiens, UniProt Q12809). The description is as above. The settings on record: chinese hamster, CHO cells stably expressing full-length hERG, pH 7.3; top test concentration 30 uM. Background: hERG is a cardiac potassium channel; its block is linked to QT prolongation.

By IC50 is commonly meant the midpoint of a concentration-inhibition curve. Low readings indicate greater potency in that assay, high ones weaker potency in that assay. The term Inhibition denotes the relative decrease from the control value, in per cent. Lower therefore signals little suppression. For orientation: inhibition means the change of the read-out against control, counted positive when it falls. A lower inhibition goes with little suppression. Take `CC(C)[C@@H](Nc1ncnc2[nH]c(-c3cnn(C)c3C#N)cc12)c1ccc2c(n1)OCCO2`: in data set [1], the IC50 is greater than 30 µM and the Inhibition was determined as 25%. The inhibition at 2 min in data set [2] was determined as 27%. This molecule had an IC50 in data set [3] of 10.1 µM.

Turning to `CC(C)[C@@H](Nc1ncnc2[nH]c(C(=O)N[C@@H]3CCN(C)C3)cc12)c1ccc2c(c1)S(=O)(=O)CCC2`, the IC50 in data set [1] and in data set [3] was greater than 30 µM each time. The same molecule showed an inhibition at 2 min in data set [2] of 11%. In data set [3] (chinese hamster, cho, pH 7.3, 2 min, 2 min, top test concentration 30 uM), this molecule gave an Inhibition of 18%.

Consider `Cn1ncc(-c2cc3c(N[C@@H](c4ccc5c(n4)OCCO5)C(C)(C)C)ncnc3[nH]2)c1C#N`, for which the half-maximal inhibitory concentration (IC50) was greater than 30 µM in data set [1] and 19.5 µM in data set [3]. The Inhibition in data set [1] is reported as 21%. The same molecule came in with an inhibition at 2 min in data set [2] of 17%.

In the case of `C[C@H](C(=O)O)[C@@H](NC(=O)c1ncnc2[nH]ccc12)c1ccc(Br)cc1`, the concentration for half-maximal inhibition (IC50) in data set [1] and in data set [3] was greater than 30 µM each time. In addition, in data set [1], the Inhibition is 16%. Moreover, the inhibition at 2 min in data set [2] is 18%; against hERG (KCNH2) it was 28%.

In the case of `COc1ccc([C@H](Cc2nnn[nH]2)NC(=O)c2ncnc3[nH]ccc23)cc1`, the half-maximal inhibitory concentration (IC50) in data set [1] and in data set [3] was greater than 30 µM in each case. This molecule also registered an Inhibition in data set [1] of 8%. Moreover, the inhibition at 2 min in data set [2] was 9%; at hERG (KCNH2) it was 27%.

In the case of `CC(C)[C@H](Nc1ncnc2[nH]c(-c3cnn(C)c3C#N)cc12)c1ccc2c(n1)OCCO2`, the results for the half-maximal inhibitory concentration (IC50) in data set [1] and in data set [3] were greater than 30 µM and 11 µM, respectively. The molecule further gave an Inhibition in data set [1] of 35%. In addition, the inhibition at 2 min in data set [2] stood at 33%.

On to `CNC(=O)Cn1cc(-c2cc3c(N[C@@H](c4ccc5c(c4)S(=O)(=O)CCC5)C(C)C)ncnc3[nH]2)cn1`, for which the IC50 in data set [1] and in data set [3] was greater than 30 µM each time. The molecule also displayed an Inhibition in data set [1] of 26%. For the same molecule, the inhibition at 2 min amounted to 15% in data set [2] and 23% on hERG (KCNH2).

`CNCc1cc(-c2cc3c(N[C@@H](c4ccc5c(c4)S(=O)(=O)CCC5)C(C)C)ncnc3[nH]2)co1`: the concentration for half-maximal inhibition (IC50) in data set [1] and in data set [3] was greater than 30 µM throughout. The Inhibition in data set [1] is recorded as 16%. Moreover, the results for the inhibition at 2 min (in data set [2]; against hERG (KCNH2)) were 10% and 26%, respectively.

As to `CC(C)[C@H](Nc1ncnc2[nH]ccc12)c1ccc2c(c1)S(=O)(=O)CCC2`, the half-inhibitory concentration (IC50) in data set [1] and in data set [3] was greater than 30 µM throughout. In data set [1], this molecule gave an Inhibition of 29%. Moreover, the values for the inhibition at 2 min (in data set [2]; on hERG (KCNH2)) were 19% and 39%, respectively.
